The text below walks through data of EP0351625B1, “Anti-HIV activity of BV-3608” (Bristol-Myers Squibb Company, priority 1988, dated 1990).

SMILES strings stand for the structures.

The test system of data set [1] is HTLV-IIIB infected MT-4 cells. Briefly: Inhibition of cytopathic effect of HIV on infected MT-4 cells (viable cell count). Format: cell-based. The following applies: Human immunodeficiency virus 1, IIIB, MT4; HIV-infected MT-4 cells, 3 or 6 days (Figure 1); read-out: concentration affording virtually complete protection of MT-4 cells. As to the method:
The cell line MT-4 disclosed by Harada, S. et al., in Virology, Vol. 146, pp. 272-281 (1985) is appropriate. This cell line features rapid and efficient replication of HTLV-III, followed by cytolysis.
(§1) MT-4 cells are maintained at 37°C in the complete medium. Two days before the start of an experiment, viable cells are counted by the trypan blue dye exclusion method and the concentration is adjusted to 30 x 10⁴ cells/mL.
Infection of the MT-4 cells with the virus is made at a multiplicity of infection (MOI) of 0.002. MT-4 cells (60 x 10⁴ cells/mL) are mixed with a 1:100 dilution of the viral preparation and incubated for 1 hour at 37°C for adsorption of the virus. After adsorption, HTLV-IIIB infected MT-4 cells are washed once and resuspended with complete medium. […]
The test substance is dissolved in dimethylsulfoxide (DMSO) and the solutions are then diluted with complete medium to concentrations of 10, 5.0, 2.5, and 1.25 mcg/ml to provide test solutions. […] To measure anti-HIV activity, the number of viable cells surviving in the test medium are counted by the trypan blue dye-exclusion method on day 3 and day 6 after infection of the cells. […]

The nature of data set [2]: Acute toxicity in mice after single intravenous and intramuscular administrations. The conditions noted are these: mouse, in vivo. As to the method:
The acute toxicity of Compound No. 28567 was determined in mice after single intravenous and intramuscular administrations.

The test system of data set [3] is MOLT-4 and MOLT-4/HTLV-IIIB. Briefly: Cell fusion / giant cell formation in MOLT-4 and MOLT-4/HTLV-IIIB co-culture (cell size distribution). Format: cell-based. The following applies: 25 µg/ml in medium, mixed culture; 11.8% without compound. As to the method: The effect on cell fusion which results in cell to cell infection and giant cell formation may be examined as follows. MOLT-4 and its virus-producing cell, MOLT-4/HTLV-IIIB are mixed in 1:1 in proportion of cell number and adjusted to a final concentration of 5 x 10⁵ cells/ml with the medium containing various concentrations of compounds, and then incubated for 10 hours in a CO₂ incubator. After incubation, the distribution of cell size is measured by a cell multisizer (Coulter Electronics Ltd., Luton, England). Viable cells are counted by trypan blue dye exclusion method. Giant cell formation is observed under a phase- contrast microscope. Particles with diameters of from 3 to 100 µm in diameter are observed in the co-cultures. Only those particles having a diameter of more than 9 µm are considered to be cells. Cell sizes in each of the cultures of MOLT-4 or MOLT-4/HTLV-IIIB are similar, and the proportion of cell particles with 12-14 µm diameters are virtually the same in each culture. The percentage of cell particles having more than a 20 µm diameter was 2.7% and in the MOLT-4 cell culture, and 2.4% in the MOLT-4/HTLV-IIIB cell culture. […] This is a reflection of the infectivity by cell-to-cell fusion of the MOLT-4/HTLV-IIIB cells for the uninfected MOLT-4 cells. The test method measures the ability of test substances to prevent or reduce this effect. […]

Data set [4] can be described thus: Cytotoxicity on uninfected MT-4 cells (viable cell count, trypan blue dye exclusion). The conditions noted are these: human. The class given is cell-based. As to the method:
as §1
The test substance is dissolved in dimethylsulfoxide (DMSO) and the solutions are then diluted with complete medium to concentrations of 10, 5.0, 2.5, and 1.25 mcg/ml to provide test solutions. Matched portions of HTLV-IIIB infected and uninfected MOLT-4 cells are adjusted to 60 x 10⁴ cells/mL and mixed with the same volume of diluted test solution to make the final concentration of 30 x 10⁴ cells/mL, and 5.0, 2.5, […], and 0.63 mcg/mL of test substance. To measure anti-HIV activity, the number of viable cells surviving in the test medium are counted by the trypan blue dye-exclusion method on day 3 and day 6 after infection of the cells.
Figure 1 illustrates the inhibition of cytopathic effect of the HIV virus on MT-4 cells by Compound No. 28567. First, the unshaded bars show the lack of cytotoxicity of the compound on uninfected MT-4 cells. Only at concentrations of 28567 in excess of 30 µg/ml is a noticeable or consistent reduction in the number of cells observed after 3 or 6 days, and even at 120 mg/ml, 60-70% of the cells survive.

On to `CN[C@@H]1[C@H](O[C@@H]2OC[C@@H](O)[C@H](O)[C@H]2O)[C@@H](O)[C@H](O[C@H]2c3cc(C)c(C(=O)N[C@H](C)C(=O)O)c(O)c3-c3c(cc4c(c3O)C(=O)c3cc(OC)cc(O)c3C4=O)[C@@H]2O)O[C@@H]1C` [Compound No. 28567], for which, in data set [1], the minimal effective concentration was ≥ 3.5 µg/mL. The sign of toxicity entry in data set [2] (400 mg/kg) was “no sign of toxicity”. For the same compound, the LD50 in data set [2] (iv, read-out: LD₅₀) worked out at 140 mg/kg. Moreover, the “proportion of particles exceeding 20 µm” value in data set [3] turned out to be 2.7%. Besides, the MCC in data set [4] (after 3 or 6 days (Figure 1), read-out: concentration at which a noticeable or consistent reduction in the number of cells is observed) is > 30 µg/mL. The viability in data set [4] (at 120 mg/ml (so in the source), 3 or 6 days, read-out: cells survive) lay within 60 to 70%.
